Test results reported in US20240092758A1, “IMIDAZOLO INDAZOLE COMPOUNDS AS JAK INHIBITORS” (Theravance Biopharma R&D IP, LLC, priority 2021, published 2024).

Key:
[1] = target: JAK1 (Homo sapiens (Human), UniProt P23458); test: Biochemical JAK kinase assay (LanthaScreen), JAK1; details: for Ki: read-out: JAK1 pKi (converted)
How it was run: (§1)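 LanthaScreen format: phospho-STAT1 (pTyr701) detected with 2 nM Tb antibody after 10 mM EDTA quench. Kinase step used Km-level ATP and 200 nM STAT1 peptide, 1 h at ambient after 1 h pre-incubation. Inhibition fitted to IC50, reported as pKi.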

[2] = target: JAK2 (Homo sapiens (Human), UniProt O60674); test: Biochemical JAK kinase assay (LanthaScreen), JAK2; details: for Ki: read-out: JAK2 pKi (converted)
How it was run: as §1

[3] = target: JAK3 (Homo sapiens (Human), UniProt P52333); test: Biochemical JAK kinase assay (LanthaScreen), JAK3; details: read-out: JAK3 pKi (converted)
Procedure: A panel of four LanthaScreen JAK biochemical assays (JAK1, 2, 3 and Tyk2) were carried in a common kinase reaction buffer (50 mM HEPES, pH 7.5, 0.01% Brij-35, 10 mM MgCl2, and 1 mM EGTA). Recombinant GST-tagged JAK enzymes and a GFP-tagged STAT1 peptide substrate were obtained from Life Technologies.
Serially diluted compounds were pre-incubated with each of the four JAK enzymes and the substrate in white 384-well microplates (Corning) at ambient temperature for 1 h. ATP was subsequently added to initiate the kinase reactions in 10 μL total volume, with 1% DMSO. The final enzyme concentrations for JAK1, 2, 3 and Tyk2 are 4.2 nM, 0.1 nM, 1 nM, and 0.25 nM respectively; the corresponding Km ATP concentrations used are 25 μM, 3 μM, 1.6 μM, and 10 μM; while the substrate concentration is 200 nM for all four assays. Kinase reactions were allowed to proceed for 1 hour at ambient temperature before a 10 μL preparation of EDTA (10 mM final concentration) and Tb-anti-pSTAT1 (pTyr701) antibody (Life Technologies, 2 nM final concentration) in TR-FRET dilution buffer (Life Technologies) was added. The plates were allowed to incubate at ambient temperature for 1 h before being read on the EnVision reader (Perkin Elmer). Emission ratio signals (520 nm/495 nm) were recorded and utilized to calculate the percent inhibition values based on DMSO and background controls.
For dose-response analysis, percent inhibition data were plotted vs. compound concentrations, and IC50 values were determined from a 4-parameter robust fit model with the Prism software (GraphPad Software). Results were expressed as pIC50 (negative logarithm of IC50) and subsequently converted to pKi (negative logarithm of dissociation constant, Ki) using the Cheng-Prusoff equation.
Test compounds having a lower Ki value or higher pKi value in the four JAK assays show greater inhibition of JAK activity.

[4] = target: TYK2 (Homo sapiens (Human), UniProt P29597); test: Biochemical JAK kinase assay (LanthaScreen), Tyk2; details: read-out: Tyk2 pKi (converted)
How it was run: as §1

[5] = system: IL-13 induced STAT6 phosphorylation in BEAS-2B human lung epithelial cells; test: Cellular JAKI potency assay (BEAS-2B); assay type: cell-based; details: Homo sapiens, BEAS-2B, BEAS-2B cells, read-out: BEAS2B pIC50 (converted)
How it was run: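 BEAS-2B cells were preincubated with compound (0.1% DMSO) in HBSS/HEPES/BSA for 1 h at 37 °C, then stimulated with IL-13 (80 ng/mL before addition) for 30 min. After lysis, pSTAT6 (Tyr641) was quantified by AlphaLISA SureFire; IC50 from a 4-parameter fit of percent inhibition, reported as pIC50.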

TYK2, sequence (P29597 whole entry): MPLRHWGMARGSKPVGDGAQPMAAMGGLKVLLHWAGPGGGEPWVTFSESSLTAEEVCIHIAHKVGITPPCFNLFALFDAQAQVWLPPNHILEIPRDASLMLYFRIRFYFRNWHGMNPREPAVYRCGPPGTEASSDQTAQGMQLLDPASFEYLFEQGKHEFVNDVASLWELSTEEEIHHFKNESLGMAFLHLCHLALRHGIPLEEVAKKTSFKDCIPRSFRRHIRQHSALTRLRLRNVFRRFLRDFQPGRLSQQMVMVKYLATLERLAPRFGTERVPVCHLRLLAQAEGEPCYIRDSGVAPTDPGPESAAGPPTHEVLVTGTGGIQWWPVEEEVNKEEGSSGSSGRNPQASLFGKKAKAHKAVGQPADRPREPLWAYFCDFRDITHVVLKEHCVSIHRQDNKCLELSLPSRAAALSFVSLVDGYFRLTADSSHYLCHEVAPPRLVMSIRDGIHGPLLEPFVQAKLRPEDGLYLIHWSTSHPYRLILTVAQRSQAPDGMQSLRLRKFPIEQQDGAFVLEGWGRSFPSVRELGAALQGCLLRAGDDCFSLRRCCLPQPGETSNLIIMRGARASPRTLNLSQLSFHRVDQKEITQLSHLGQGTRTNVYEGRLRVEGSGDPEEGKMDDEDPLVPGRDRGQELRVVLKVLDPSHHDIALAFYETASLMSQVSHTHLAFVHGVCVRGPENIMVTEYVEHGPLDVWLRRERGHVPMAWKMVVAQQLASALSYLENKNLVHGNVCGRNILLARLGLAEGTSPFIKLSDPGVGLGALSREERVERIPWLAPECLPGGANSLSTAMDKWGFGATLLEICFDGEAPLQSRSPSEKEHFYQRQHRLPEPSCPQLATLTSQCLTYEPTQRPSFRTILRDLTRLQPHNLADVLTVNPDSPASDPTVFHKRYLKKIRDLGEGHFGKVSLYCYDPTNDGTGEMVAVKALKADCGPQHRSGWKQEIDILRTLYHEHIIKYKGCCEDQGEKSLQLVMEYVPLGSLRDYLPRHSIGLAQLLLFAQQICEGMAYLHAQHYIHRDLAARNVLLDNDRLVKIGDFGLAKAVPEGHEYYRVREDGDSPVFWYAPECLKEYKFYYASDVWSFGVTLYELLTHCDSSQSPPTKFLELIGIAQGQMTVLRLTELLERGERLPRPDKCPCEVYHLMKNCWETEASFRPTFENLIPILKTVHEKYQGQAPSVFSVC
JAK3, sequence (P52333 whole entry): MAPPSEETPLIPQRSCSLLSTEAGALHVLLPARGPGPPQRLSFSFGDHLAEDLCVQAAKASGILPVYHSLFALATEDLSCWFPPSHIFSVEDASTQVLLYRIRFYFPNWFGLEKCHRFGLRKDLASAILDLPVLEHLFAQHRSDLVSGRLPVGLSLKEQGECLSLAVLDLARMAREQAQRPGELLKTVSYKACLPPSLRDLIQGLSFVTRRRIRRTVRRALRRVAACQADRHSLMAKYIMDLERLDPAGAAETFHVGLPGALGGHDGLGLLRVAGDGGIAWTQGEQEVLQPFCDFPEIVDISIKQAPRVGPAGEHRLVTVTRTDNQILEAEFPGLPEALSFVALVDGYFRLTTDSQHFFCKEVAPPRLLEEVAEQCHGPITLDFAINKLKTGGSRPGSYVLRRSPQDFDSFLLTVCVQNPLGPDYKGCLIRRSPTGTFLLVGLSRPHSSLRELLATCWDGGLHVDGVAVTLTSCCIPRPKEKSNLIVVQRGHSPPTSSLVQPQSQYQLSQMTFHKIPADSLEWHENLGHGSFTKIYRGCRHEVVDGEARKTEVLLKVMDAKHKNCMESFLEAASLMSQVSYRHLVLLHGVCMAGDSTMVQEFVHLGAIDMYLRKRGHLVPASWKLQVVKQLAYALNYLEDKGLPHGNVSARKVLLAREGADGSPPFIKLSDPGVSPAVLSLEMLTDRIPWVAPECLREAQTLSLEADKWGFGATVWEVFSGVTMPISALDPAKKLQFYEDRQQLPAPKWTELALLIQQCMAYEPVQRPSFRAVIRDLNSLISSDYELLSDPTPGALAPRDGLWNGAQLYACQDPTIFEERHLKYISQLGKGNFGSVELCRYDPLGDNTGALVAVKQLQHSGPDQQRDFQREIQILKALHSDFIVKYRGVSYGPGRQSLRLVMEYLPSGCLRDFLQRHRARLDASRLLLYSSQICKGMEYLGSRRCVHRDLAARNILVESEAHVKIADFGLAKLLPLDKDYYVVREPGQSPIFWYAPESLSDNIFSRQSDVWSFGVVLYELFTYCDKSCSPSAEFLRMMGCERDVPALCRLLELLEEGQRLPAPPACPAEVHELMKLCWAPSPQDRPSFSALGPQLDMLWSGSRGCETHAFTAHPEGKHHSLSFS
JAK2, sequence (O60674 whole entry): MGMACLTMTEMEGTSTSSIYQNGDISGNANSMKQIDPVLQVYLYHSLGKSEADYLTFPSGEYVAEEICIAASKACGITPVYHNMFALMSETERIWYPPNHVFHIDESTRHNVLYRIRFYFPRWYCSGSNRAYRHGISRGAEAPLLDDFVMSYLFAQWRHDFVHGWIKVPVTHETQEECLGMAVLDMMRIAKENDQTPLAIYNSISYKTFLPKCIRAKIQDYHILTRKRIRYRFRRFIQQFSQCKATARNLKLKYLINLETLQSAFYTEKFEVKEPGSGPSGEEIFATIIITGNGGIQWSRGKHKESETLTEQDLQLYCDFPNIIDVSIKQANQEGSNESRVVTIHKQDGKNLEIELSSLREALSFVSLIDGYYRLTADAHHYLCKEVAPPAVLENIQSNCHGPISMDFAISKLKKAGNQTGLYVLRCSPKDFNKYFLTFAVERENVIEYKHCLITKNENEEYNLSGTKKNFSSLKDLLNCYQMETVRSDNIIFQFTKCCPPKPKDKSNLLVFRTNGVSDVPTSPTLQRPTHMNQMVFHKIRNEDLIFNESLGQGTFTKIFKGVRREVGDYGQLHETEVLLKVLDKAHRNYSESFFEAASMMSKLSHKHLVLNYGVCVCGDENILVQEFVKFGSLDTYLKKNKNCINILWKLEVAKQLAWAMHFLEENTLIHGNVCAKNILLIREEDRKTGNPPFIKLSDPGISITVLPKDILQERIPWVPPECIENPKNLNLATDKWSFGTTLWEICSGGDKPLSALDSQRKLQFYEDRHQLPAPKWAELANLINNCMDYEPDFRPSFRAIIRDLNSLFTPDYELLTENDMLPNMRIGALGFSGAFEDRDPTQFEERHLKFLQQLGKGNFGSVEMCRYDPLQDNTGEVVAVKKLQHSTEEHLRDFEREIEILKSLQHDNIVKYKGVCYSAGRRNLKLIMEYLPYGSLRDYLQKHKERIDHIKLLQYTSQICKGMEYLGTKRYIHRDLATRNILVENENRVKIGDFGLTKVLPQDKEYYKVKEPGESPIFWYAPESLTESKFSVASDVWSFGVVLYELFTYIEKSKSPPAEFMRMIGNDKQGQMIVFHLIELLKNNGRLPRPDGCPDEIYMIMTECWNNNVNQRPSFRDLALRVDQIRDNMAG
JAK1, sequence (P23458 whole entry): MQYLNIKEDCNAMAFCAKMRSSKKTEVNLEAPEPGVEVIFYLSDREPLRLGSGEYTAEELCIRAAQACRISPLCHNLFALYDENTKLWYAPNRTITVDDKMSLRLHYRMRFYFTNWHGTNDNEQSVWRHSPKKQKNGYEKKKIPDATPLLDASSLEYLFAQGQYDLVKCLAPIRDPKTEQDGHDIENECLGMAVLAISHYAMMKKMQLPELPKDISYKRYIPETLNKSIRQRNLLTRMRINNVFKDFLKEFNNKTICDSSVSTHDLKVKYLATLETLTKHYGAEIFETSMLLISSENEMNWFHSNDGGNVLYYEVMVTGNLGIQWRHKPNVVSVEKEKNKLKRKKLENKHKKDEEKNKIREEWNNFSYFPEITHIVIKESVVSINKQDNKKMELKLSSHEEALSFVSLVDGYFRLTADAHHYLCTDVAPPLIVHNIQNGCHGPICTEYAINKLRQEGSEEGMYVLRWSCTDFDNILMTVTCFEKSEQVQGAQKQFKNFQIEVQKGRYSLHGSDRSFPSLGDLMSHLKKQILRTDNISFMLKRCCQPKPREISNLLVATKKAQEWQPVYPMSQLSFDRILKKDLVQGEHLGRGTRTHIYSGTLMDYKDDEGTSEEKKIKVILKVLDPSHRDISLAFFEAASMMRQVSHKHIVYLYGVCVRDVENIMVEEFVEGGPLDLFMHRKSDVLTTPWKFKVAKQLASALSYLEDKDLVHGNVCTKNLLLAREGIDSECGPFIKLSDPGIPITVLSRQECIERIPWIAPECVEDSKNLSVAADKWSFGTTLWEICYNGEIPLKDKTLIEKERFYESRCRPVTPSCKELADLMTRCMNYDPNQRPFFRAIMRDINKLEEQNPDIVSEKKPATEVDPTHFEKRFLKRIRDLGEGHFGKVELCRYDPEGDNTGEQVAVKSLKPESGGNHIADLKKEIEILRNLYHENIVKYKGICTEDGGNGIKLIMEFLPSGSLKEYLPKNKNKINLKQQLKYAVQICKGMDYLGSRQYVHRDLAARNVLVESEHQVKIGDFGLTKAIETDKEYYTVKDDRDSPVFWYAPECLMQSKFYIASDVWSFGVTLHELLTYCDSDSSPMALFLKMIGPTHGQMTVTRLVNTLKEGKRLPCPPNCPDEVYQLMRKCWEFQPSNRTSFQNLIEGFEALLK

Compound | Ki [1] [nM] | Ki [2] [nM] | Ki [3] [nM] | Ki [4] [nM] | IC50 [5] [nM] | JAK2 pKi [2] | JAK1 pKi [1]
CCc1cc(O)ccc1-c1ccc2c(-c3nc(C4=CCN(C5COC5)CC4)c[nH]3)n[nH]c2c1F [Example 64] | 0.1 to 1 | 0.1 to 1 | 0.1 to 1 | 1 to 10 | 10 to 31.6 | – | –
CCc1cc(O)ccc1-c1ccc2c(-c3nc(C4=CCCN(C5COC5)C4)c[nH]3)n[nH]c2c1F [Example 70] | 1 to 10 | 0.1 to 1 | 0.1 to 1 | 10 to 100 | 31.6 to 100 | – | –
CCc1cc(O)ccc1-c1ccc2c(-c3nc(C4=CCN(C5COC5)C4)c[nH]3)n[nH]c2c1F [Example 75] | 0.1 to 1 | 0.1 to 1 | 0.1 to 1 | 1 to 10 | 10 to 31.6 | – | –
CCc1cc(O)ccc1-c1ccc2c(-c3nc(C4=CCN(CCSC)CC4)c[nH]3)n[nH]c2c1F [Example 81] | 0.1 to 1 | – | 0.1 to 1 | 1 to 10 | 31.6 to 100 | A (A represents a pKi value ≥10 (Ki≤0.1 nM)) | –
CCc1cc(O)ccc1-c1ccc2c(-c3nc(C4=CCCN(CCSC)C4)c[nH]3)n[nH]c2c1F [Example 90] | 0.1 to 1 | 0.1 to 1 | 0.1 to 1 | 10 to 100 | 31.6 to 100 | – | –
CCc1cc(O)ccc1-c1ccc2c(-c3nc(C4=CCN(C(=O)CN)CC4)c[nH]3)n[nH]c2c1 [Example 152] | 0.1 to 1 | – | 0.1 to 1 | 1 to 10 | 10 to 31.6 | A (A represents a pKi value ≥10 (Ki≤0.1 nM)) | –
CCc1cc(O)ccc1-c1ccc2c(-c3nc(C4=CCN(C(=O)[C@@H](N)C(C)(C)O)CC4)c[nH]3)n[nH]c2c1 [Example 153] | 0.1 to 1 | – | 0.1 to 1 | 1 to 10 | 31.6 to 100 | A (A represents a pKi value ≥10 (Ki≤0.1 nM)) | –
CCc1cc(O)ccc1-c1ccc2c(-c3nc(C4=CCN(C(=O)CN)CC4)c[nH]3)n[nH]c2c1F [Example 157] | 0.1 to 1 | – | 0.1 to 1 | 1 to 10 | 31.6 to 100 | A (A represents a pKi value ≥10 (Ki≤0.1 nM)) | –
CCc1cc(O)ccc1-c1ccc2c(-c3nc(C4=CCN(C(=O)[C@@H](N)C(C)(C)O)CC4)c[nH]3)n[nH]c2c1F [Example 158] | 1 to 10 | 0.1 to 1 | 0.1 to 1 | 10 to 100 | 31.6 to 100 | – | –
CCc1cc(O)ccc1-c1ccc2c(-c3nc(C4=CCN(C(=O)CN)C4)c[nH]3)n[nH]c2c1F [Example 173] | 0.1 to 1 | – | 0.1 to 1 | 1 to 10 | 31.6 to 100 | A (A represents a pKi value ≥10 (Ki≤0.1 nM)) | –
CCc1cc(O)ccc1-c1ccc2c(-c3nc(C4=CCN(C(=O)[C@@H](N)C(C)(C)O)C4)c[nH]3)n[nH]c2c1F [Example 174] | 0.1 to 1 | 0.1 to 1 | 0.1 to 1 | 1 to 10 | 10 to 31.6 | – | –
CCc1cc(O)ccc1-c1ccc2c(-c3nc(C4=CCN(S(=O)(=O)C5CNC5)CC4)c[nH]3)n[nH]c2c1 [Example 175] | 0.1 to 1 | 0.1 to 1 | 0.1 to 1 | 1 to 10 | 31.6 to 100 | – | –
CCc1cc(O)ccc1-c1ccc2c(-c3nc(C4=CCN(S(=O)(=O)C5CNC5)CC4)c[nH]3)n[nH]c2c1F [Example 178] | 1 to 10 | 0.1 to 1 | 1 to 10 | 10 to 100 | 100 to 316 | – | –
CCc1cc(O)ccc1-c1ccc2c(-c3nc(C4=CCN(CCN5CCOCC5)CC4)c[nH]3)n[nH]c2c1 [Example 184] | – | – | 0.1 to 1 | 1 to 10 | 3.16 to 10 | A (A represents a pKi value ≥10 (Ki≤0.1 nM)) | A (A represents a pKi value ≥10 (Ki≤0.1 nM))
CCc1cc(O)ccc1-c1ccc2c(-c3nc(C4=CCN(C5CN(C)C5)CC4)c[nH]3)n[nH]c2c1F [Example 186] | 0.1 to 1 | 0.1 to 1 | 0.1 to 1 | 1 to 10 | 3.16 to 10 | – | –
CCc1cc(O)ccc1-c1ccc2c(-c3nc(C4=CCN(C[C@@H]5COCCN5)CC4)c[nH]3)n[nH]c2c1F [Example 189] | 0.1 to 1 | 0.1 to 1 | 0.1 to 1 | 1 to 10 | 10 to 31.6 | – | –
CCc1cc(O)ccc1-c1ccc2c(-c3nc(C4=CCN(CCN5CCOCC5)CC4)c[nH]3)n[nH]c2c1F [Example 191] | – | – | 0.1 to 1 | 1 to 10 | 10 to 31.6 | A (A represents a pKi value ≥10 (Ki≤0.1 nM)) | A (A represents a pKi value ≥10 (Ki≤0.1 nM))
CCc1cc(O)ccc1-c1ccc2c(-c3nc(C4=CCCN(C5CCN(C)CC5)C4)c[nH]3)n[nH]c2c1F [Example 194] | 0.1 to 1 | 0.1 to 1 | 0.1 to 1 | 1 to 10 | 10 to 31.6 | – | –
CCc1cc(O)ccc1-c1ccc2c(-c3nc(C4=CCCN(C5CN(C)C5)C4)c[nH]3)n[nH]c2c1F [Example 195] | 0.1 to 1 | 0.1 to 1 | 0.1 to 1 | 1 to 10 | 31.6 to 100 | – | –
CCc1cc(O)ccc1-c1ccc2c(-c3nc(C4=CCCN(C[C@@H]5COCCN5)C4)c[nH]3)n[nH]c2c1F [Example 196] | 1 to 10 | 0.1 to 1 | 0.1 to 1 | 10 to 100 | 31.6 to 100 | – | –
CCc1cc(O)ccc1-c1ccc2c(-c3nc(C4=CCN(C5CCN(C)CC5)C4)c[nH]3)n[nH]c2c1 [Example 199] | – | – | 0.1 to 1 | 0.1 to 1 | 3.16 to 10 | A (A represents a pKi value ≥10 (Ki≤0.1 nM)) | A (A represents a pKi value ≥10 (Ki≤0.1 nM))
CCc1cc(O)ccc1-c1ccc2c(-c3nc(C4=CCN(C[C@@H]5COCCN5)C4)c[nH]3)n[nH]c2c1F [Example 205] | 0.1 to 1 | 0.1 to 1 | 0.1 to 1 | 1 to 10 | 10 to 31.6 | – | –
CCc1cc(O)ccc1-c1ccc2c(-c3nc(C4=CCN(CCN5CCOCC5)C4)c[nH]3)n[nH]c2c1F [Example 206] | 0.1 to 1 | – | 0.1 to 1 | 1 to 10 | 10 to 31.6 | A (A represents a pKi value ≥10 (Ki≤0.1 nM)) | –
CCc1cc(O)ccc1-c1ccc2c(-c3nc(C4=CCN(C5CCNC5)CC4)c[nH]3)n[nH]c2c1F (centres unmarked) [Example 207] | 0.1 to 1 | – | 0.1 to 1 | 1 to 10 | 100 to 316 | A (A represents a pKi value ≥10 (Ki≤0.1 nM)) | –
CCc1cc(O)ccc1-c1ccc2c(-c3nc(C4=CCN(C5CCN(C)C5)CC4)c[nH]3)n[nH]c2c1F (centres unmarked) [Example 208] | 0.1 to 1 | – | 0.1 to 1 | 1 to 10 | 10 to 31.6 | A (A represents a pKi value ≥10 (Ki≤0.1 nM)) | –
CCc1cc(O)ccc1-c1ccc2c(-c3nc(C4=CCN(CCN(C)C)CC4)c[nH]3)n[nH]c2c1F [Example 209] | 0.1 to 1 | – | 0.1 to 1 | 1 to 10 | 10 to 31.6 | A (A represents a pKi value ≥10 (Ki≤0.1 nM)) | –
CCc1cc(O)ccc1-c1ccc2c(-c3nc(C4=CCN(C5CCCN(C)C5)CC4)c[nH]3)n[nH]c2c1F (centres unmarked) [Example 212] | 0.1 to 1 | – | 0.1 to 1 | 1 to 10 | 10 to 31.6 | A (A represents a pKi value ≥10 (Ki≤0.1 nM)) | –
CCc1cc(O)ccc1-c1ccc2c(-c3nc(C4=CCN(C(C)CN)CC4)c[nH]3)n[nH]c2c1F (centres unmarked) [Example 213] | 0.1 to 1 | 0.1 to 1 | 0.1 to 1 | 10 to 100 | 100 to 316 | – | –
